Laboratory results: patent US8088916B2, “Hyaluronic acid-methotrexate conjugate” (priority 2004, dated 2012)

Assays:
[1] = tested on: human synovial cells (HFLS); experiment: Anti-proliferative effect on synovial cells stimulated by TNF-α ([3H]-deoxyuridine uptake); assay type: cell-based; conditions: TNF-α 10 ng/mL, 5 days culture, concentration calculated as MTX from conjugation rate
Excerpt: An effect of the HA-MTX conjugates of the invention on cell proliferation induced by TNF-α stimulation was examined using human synovial cells (HFLS). The main lesion in rheumatoid arthritis (RA) occurs in the synovial tissue, and, as one of the features, it is known that synovial cells abnormally proliferate to form a granulation tissue (pannus) and thereby destroy the cartilage and bone of the joint. Secondary synovitis is also observed in osteoarthritis (OA). […] Thus, a compound inhibiting the proliferation of synovial cells stimulated by the inflammatory cytokine TNF-α suppresses the progression of the pathologic conditions of RA and OA and becomes a therapeutic drug therefor. The sterile aqueous solutions of the HA-MTX conjugates in Example 2 (Table 2) were used as test substances. HFLS (CA40405, Lot Nos. 1413 and 1493) was purchased from Cell Applications Ins. for use. HFLS was seeded at 5,000 cells/well on a 96-well plate (Falcon) and cultured for 3 hours in Iscove's modified Dulbecco's medium (IMDM) containing 5% FBS and 1× Antibiotic-Antimycotic (GIBOC). After cellular attachment, TNF-α (final concentration: 10 ng/mL) and each HA-MTX conjugate at each concentration was added, followed by cultivation for 5 days. Two days before the end of culture, was added 37 kBq/well of [^3H]-deoxyuridine in the cells (MORAVEK), followed by determining the uptake quantity (radioactivity) of [^3H]-deoxyuridine using a scintillation counter. Cells were recovered by unsticking them with 0.05% trypsin-0.2% EDTA. Radioactivity determined in each of the experiments with each test substance was calculated as a relative value (% of control), using, as control, radioactivity in the group of cells cultured without adding any test substance. […] GraphPad Prism 3.02).

[2] = tested on: mBSA-induced monoarthritis model; experiment: Suppressive effect on knee joint swelling in mBSA-induced monoarthritis model; assay type: in vivo, rat; conditions: for suppressive effect on joint swelling / alleviating effect on synovitis: Experimental Example 4: conjugate vs equal amount of MTX vs mixture HA+MTX, FIGS. 2 and 3; for AUC (% of control) (mean ± SEM): AUC of knee joint swelling to two weeks after induction, control = HA-treated group, 50 μL into right knee joint 7 and 1 day before and 7 days after induction
Experimental: An in vivo synovitis-suppressing effect of each HA-MTX conjugate of the invention was assessed on the basis of a suppressive effect on knee joint swelling in a methylated bovine serum albumin (mBSA)-induced monoarthritis model of rat. Since the mBSA-induced arthritis model employed in this experimental example is widely used as an antigen-induced arthritis model, and known to develop synovitis (Sven E. Andersson, et al., The Journal of Rheumatology (1998) 25: 9, 1772-7), the in vivo knee joint swelling-suppressing effect observed in this model conceivably represents a synovitis-suppressing effect. The compounds of the invention suppressing synovitis in vivo are useful as therapeutic drugs for joint diseases accompanied by synovitis (RA, OA, and the like).
The animal used was the LEW/Crj rat (6-week old male, from Charles River Laboratories Japan, Inc.). Into the flank of the rat was subcutaneously injected 0.5 mL of an emulsion prepared from a 2 mg/mL mBSA (Calbiochem) aqueous solution and an equal amount of Freund's complete adjuvant (Difco) 21 and 14 days before inducing arthritis. The arthritis was induced by administering 50 μL of a 2 mg/mL mBSA aqueous solution into the right knee joint. The left knee joint was untreated, and served as control in each individual. Each test substance (sterile aqueous solution) and the control drug hyaluronic acid were each administered into the right knee joint in an amount of 50 μL 7 and 1 day before and 7 days after inducing arthritis.
The determination of knee joint swelling involved measuring the widths of both knee joints with calipers to define the left/right difference (right knee diameter-left knee diameter) as a knee joint swelling. The width of each knee joint was measured at a frequency of twice a week from immediately before inducing arthritis to two weeks later to calculate AUC (an abbreviation for Area Under the Curve; here, it means an area under a curve with time for the joint swelling) from the transition thereof with time. At each measurement, the mean and standard deviation of AUC were calculated to perform an unpaired t-test between each test substance-treated group and the HA-treated group, and significant difference was judged to be present if the probability level is less than 5%. Statistical analysis used SAS version 6.12 (SAS Institute Japan). In addition, the AUC of each test substance was calculated, using that in the HA-treated group as a control, as a relative value (% of control) therefor.
To verify the usefulness of the HA-MTX conjugate of the invention, the suppressive effect on joint swelling was compared, in accordance with the method of Example 3, among: 1) a group treated with the HA-MTX conjugate (sterile aqueous solution) prepared in Example 2-2; 2) a group treated with a solution containing MTX of an amount equal to that of MTX contained in the HA-MTX conjugate; and 3) a group of treated with a mixture (HA+MTX) of MTX and hyaluronic acid (HA) of amounts equal to those contained in the conjugate. The transition of knee joint swelling with time in this test is shown in FIG. 2, and the AUC thereof in FIG. 3.

[3] = Measurement of viscoelasticity; assay type: physicochemical; conditions: sterile solutions, 37° C., cone 4 cm, CSL500 stress-controlled rheometer; FIG. 1
Experimental: The viscoelasticities of the sterile solutions of hyaluronic acids (molecular weights: 1,900,000 and 800,000) and the conjugates of Examples 2-1, 2-8, 2-18, 2-27, and 2-29 were measured at 37° C. using a cone 4 cm in diameter by a CSL500 stress-controlled rheometer (from Carri-Med Ltd.).

[4] = tested on: collagenase-induced arthritis (OA) model; experiment: Suppressive effect on knee joint swelling in collagenase-induced arthritis (OA) model; assay type: in vivo, rat; conditions: AUC of knee joint swelling to 20 days after induction; 50 μL into right knee joint once a week from 7 and 1 day before induction; compared with HA-treated group
Experimental: An in vivo synovitis-suppressing effect of the HA-MTX conjugate was evaluated in collagenase-induced OA model rats. The collagenase-induced OA model is a model in which inflammation has been induced within the knee joint by injecting collagenase into the knee joint to directly digest collagen in cartilage tissue. […] Therefore, the compound of the invention suppressing inflammation in the model and inhibiting cartilage degeneration therein will be useful as a therapeutic drug for OA.
The animal used was the SD/Crj rat (6-week old male, from Charles River Laboratories Japan, Inc.). Into the articular cavity of the right knee was administered 50 μL of 1.5% collagenase (Sigma) solution to induce arthritis. The left knee joint was untreated to use as a control in each individual. Each test substance was administered into the right knee joint in an amount of 50 μL once a week from 7 and 1 day before inducing arthritis.
The determination of knee joint swelling involved measuring the widths of both knee joints with calipers to determine the left/right difference (right knee diameter-left knee diameter), which was defined as a knee joint swelling. The width of each knee joint was measured on the order of twice a week from immediately before inducing arthritis to 20 days later to calculate AUC from a graph showing the transition thereof with time. At each measurement, the mean and standard error of the mean of AUC were calculated to perform an unpaired t-test between each test substance-treated group and the HA-treated group, and significant difference was judged to be present if the probability level is less than 5%.

Compound | IC50 [1] [µM] | AUC (% of control) (mean ± SEM) [2] | other results
CN(Cc1cnc2nc(N)nc(N)c2n1)c1ccc(C(=O)N[C@@H](CCC(=O)O)C(=O)O)cc1 [MTX alone, methotrexate] | 0.055 |  | suppressive effect on joint swelling / alleviating effect on synovitis [2]: neither MTX alone nor the mixture of HA and MTX had a sufficient alleviating effect on synovitis
MTX-α-AsnPhePhe-NHC10H20O3NH-HA [Example 2-47] | 1.1 | 42.1 ± 6.3 % of control | 
MTX-α-Glu-NHC2H4NH-HA [Example 2-30] | 54 | 58.3 ± 7.4 % of control | 
MTX-α-Glu-NHC10H20O3NH-HA [Example 2-29] | 8.4 | 68.8 ± 6.7 % of control | viscoelasticity [3]: viscoelasticities intermediate between those of the hyaluronic acids having molecular weights of 800,000 and 1,900,000
MTX-α-His-NHC10H20O3NH-HA [Example 2-36] | 17 |  | 
MTX-α-Ile-NHC2H4NH-HA [Example 2-28] | 12 | 63.5 ± 4.7 % of control | 
MTX-α-Leu-NHC10H20O3NH-HA [Example 2-34] | 3.6 |  | 
MTX-α-Phe-NHC10H20O3NH-HA [Example 2-26] | 1.7 |  | 
MTX-α-PheGly-NHC4H8ONH-HA [Example 2-22] | 3 |  | 
MTX-α-PheGly-NHC6H12O2NH-HA [Example 2-21] | 0.83 | 47.4 ± 8.8 % of control | 
MTX-α-PheGly-NHC8H16O2NH-HA [Example 2-20] | 18 | 65.3 ± 9.6 % of control | 
MTX-α-PheGly-NHC10H20O2NH-HA [Example 2-19] | 5.4 |  | 
MTX-α-PheGly-NHC10H20O3NH-HA [Example 2-15] | 0.48 |  | 
MTX-α-PheGly-NHC10H20O3NH-HA [Example 2-16] | 13 |  | 
MTX-α-PheGly-NHC10H20O3NH-HA [Example 2-17] | 13 | 56.1 ± 8.2 % of control | 
MTX-α-PhePhe-Lys-HA [Example 2-14] | 15 | 54.3 ± 7.4 % of control | 
MTX-α-PhePhe-NHC2H4NH-HA [Example 2-2] | 0.14 | 45.0 ± 6.8 % of control | AUC (% of control) (mean ± SEM) [4]: 48.9 ± 3.7 % of control; suppressive effect on joint swelling / alleviating effect on synovitis [2]: markedly strong suppressive effect on the joint swelling in the arthritis model compared to that of MTX alone or the mixture of MTX and HA
MTX-α-PhePhe-NHC2H4NH-HA [Example 2-2′] | 0.72 | 65.5 ± 7.5 % of control | 
MTX-α-PhePhe-NHC2H4NH-HA [Example 2-3] |  | 76.2 ± 7.7 % of control | 
MTX-α-PhePhe-NHC2H4NH-HA [Example 2-4] | 11 | 69.0 ± 6.5 % of control | 
MTX-α-PhePhe-NHC2H4NH-HA [Example 2-5] | 1.1 | 51.7 ± 3.8 % of control | 

Compound | IC50 [1] [µM] | AUC (% of control) (mean ± SEM) [2] | other results
MTX-α-PhePhe-NHC2H4NH-HA [Example 2-6] | 0.091 | 41.6 ± 7.6 % of control | 
MTX-α-PhePhe-NHC2H4NH-HA [Example 2-7] |  | 46.5 ± 4.8 % of control | 
MTX-α-PhePhe-NHC4H80NH-HA [Example 2-12] | 0.3 |  | 
MTX-α-PhePhe-NHC5H10NH-HA [Example 2-13] | 1.5 | 60.5 ± 9.9 % of control | 
MTX-α-PhePhe-NHC6H12O2NH-HA [Example 2-11] | 0.25 |  | 
MTX-α-PhePhe-NHC8H16O2NH-HA [Example 2-10] | 1.2 | 63.7 ± 9.1 % of control | 
MTX-α-PhePhe-NHC10H20O2NH-HA [Example 2-9] | 1.3 |  | 
MTX-α-PhePhe-NHC10H20O3NH-HA [Example 2-49] | 13 |  | 
MTX-α-PhePro-NHC10H20O3NH-HA [Example 2-23] | 12 |  | 
MTX-α-PheβAla-NHC2H4NH-HA [Example 2-25] | 0.29 |  | 
MTX-α-PheβAla-NHC10H20O3NH-HA [Example 2-24] | 3.5 |  | 
MTX-α-Ser-NHC10H20O3NH-HA [Example 2-33] | 36 |  | 
MTX-α-Trp-NHC10H20O3NH-HA [Example 2-32] | 4.7 |  | 
MTX-α-Tyr-NHC10H20O3NH-HA [Example 2-31] | 7 | 67.7 ± 6.2 % of control | 
MTX-α-Val-NHC10H20O3NH-HA [Example 2-35] | 11 |  | 
MTX-α-βAla-NHC10H20O3NH-HA [Example 2-38] |  | 69.3 ± 4.2 % of control | 
MTX-α/γ-GlyPheLeuGly-NHC10H20O3NH-HA (methotrexate-GFLG-{NHC10H20O3NH-hyaluronic acid}; also: methotrexate linked via α- or γ-carboxyl) [Example 2-48] | 1.3 | 58.8 ± 11.6 % of control | 
MTX-γ-PheGly-NHC10H20O3NH-HA [Example 2-42] | 14 |  | 
MTX-γ-PhePhe-NHC4H8ONH-HA [Example 2-41] |  | 67.1 ± 8.3 % of control | 
MTX-γ-PhePhe-NHC10H20O3NH-HA [Example 2-39] | 3.2 |  | 
